Results on 24 compounds are retold here after ChEMBL document CHEMBL6178020, “Harder than Metal: Challenging Antimicrobial Resistance with Metallo-β-lactamase Inhibitors” (J Med Chem, 2025).

SMILES strings stand for the structures.

Assay [1] addresses T1, Metallo-beta-lactamase type 2 (Bacteria, UniProt C7C422). As to the kind of experiment: Inhibition of Metallo-beta-lactamase NDM-1 (unknown origin).
The target in assay [2] is T1, Metallo-beta-lactamase type 2. The experiment in a line: Inhibition of N-terminal NDM-1 (unknown origin) extracted from Escherichia coli BL21.
Assay [3] shares this target. The experiment in a line: Binding affinity to N-terminal NDM-1 (unknown origin) extracted from Escherichia coli BL21 assessed as inhibition constant.
The subject of assay [4] is Serratia marcescens. As to the kind of experiment: Antibacterial activity against Serratia marcescens expressing IMP-1 assessed as bacterial growth inhibition in presence of IPM. In kind it is functional.
The test system of assay [5] is Klebsiella pneumoniae. The experiment in a line: Antibacterial activity against Klebsiella pneumoniae expressing VIM-1 assessed as bacterial growth inhibition in presence of IPM. In kind it is functional.
Assay [6] concerns the target T1, Metallo-beta-lactamase type 2. As to the kind of experiment: Inhibition of NDM-1 (unknown origin).
The subject of assay [7] is Escherichia coli. As to the kind of experiment: Antibacterial activity against Escherichia coli expressing NDM-1 assessed as bacterial growth inhibition in presence of IPM. It counts as functional.
For assay [8], the system named is Escherichia coli. The experiment in a line: Antibacterial activity against carbapenem-resistant Escherichia coli […] infected in mouse assessed as fold reduction in bacterial load at 10 mg/kg, sc measured for 24 hrs in presence of Meropenem. It counts as functional.
For assay [9], the system named is Klebsiella pneumoniae. The experiment in a line: Antibacterial activity against carbapenem-resistant Klebsiella pneumoniae B68-1 infected in mouse assessed as fold reduction in bacterial load at 10 mg/kg, sc measured for 24 hrs in presence of Meropenem. In kind it is functional.
Assay [10] has as its system Escherichia coli. As to the kind of experiment: Antibacterial activity against carbapenem-resistant Escherichia coli IR57 infected in mouse assessed as fold reduction in bacterial load at 10 mg/kg, sc measured for 24 hrs in presence of Meropenem. It counts as functional.
The subject of assay [11] is Escherichia coli. The experiment in a line: Antibacterial activity against carbapenem-resistant Escherichia coli IHMA 997800 infected in mouse assessed as fold reduction in bacterial load at 10 mg/kg, sc measured for 24 hrs in presence of Meropenem. In kind it is functional.
Assay [12] concerns Serratia marcescens. As to the kind of experiment: Antibacterial activity against Serratia marcescens expressing IMP-1 assessed as bacterial growth inhibition. In kind it is functional.
The subject of assay [13] is Klebsiella pneumoniae. The experiment in a line: Antibacterial activity against Klebsiella pneumoniae expressing VIM-1 assessed as bacterial growth inhibition. In kind it is functional.
Assay [14] relates to Escherichia coli. As to the kind of experiment: Antibacterial activity against Escherichia coli expressing NDM-1 assessed as bacterial growth inhibition. It counts as functional.

T1 sequence (C7C422 whole entry): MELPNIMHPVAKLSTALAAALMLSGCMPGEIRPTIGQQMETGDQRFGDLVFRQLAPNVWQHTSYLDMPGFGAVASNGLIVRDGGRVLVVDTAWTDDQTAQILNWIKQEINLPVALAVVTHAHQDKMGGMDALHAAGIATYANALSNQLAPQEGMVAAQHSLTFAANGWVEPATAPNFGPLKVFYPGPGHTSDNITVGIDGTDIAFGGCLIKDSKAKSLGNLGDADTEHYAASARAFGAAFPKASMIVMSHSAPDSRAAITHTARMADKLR

Turning to `O=C(O)CN1CCN(CC(=O)O)CCN(CC(=O)O)CC1`, in assay [1], the IC50 is 280 nM.
Consider `Nc1cccc(-c2cc(C(=O)O)nc(C(=O)O)c2)c1`, for which the IC50 in assay [2] (read-out: IC50) stood at 80 nM.
For the compound `N[C@H](CN[C@H](CN[C@@H](CC(=O)O)C(=O)O)C(=O)O)C(=O)O`, the IC50 in [1] is 4000 nM.
For the compound `O=C(O)c1ncsc1NS(=O)(=O)c1cccnc1`, in [3], the Ki was found to be 800 nM.
As for `C[C@H](CS)C(=O)N1CCc2ccccc2[C@@H]1C(=O)O`, the IC50 in [1] stood at 4600 nM.
Take `C[C@H](CS)C(=O)N1CCC(C(N)=O)CC1`: in assay [1], the IC50 is 11100 nM.
The compound `C[C@H](CS)C(=O)N1CCC[C@H](C(=O)O)C1` registered an IC50 in [1] of 28400 nM.
Still for that read-out and setting: to `C[C@H](CS)C(=O)N1CCCCC[C@@H]1C(=O)O` belongs 20400 nM.
The compound `C[C@H](CS)C(=O)N1CCC(CC(N)=O)CC1` had an IC50 in assay [1] of 27900 nM.
In the case of `C[C@H](CS)C(=O)N1CCCC[C@@H]1C(=O)O`, the IC50 in [1] came to 6900 nM.
The same measure, in the same setting: to `C[C@H](CS)C(=O)N1Cc2ccccc2C[C@@H]1C(=O)O` belongs over 300000 nM.
Consider `O=C(O)[C@H]1CCCN1C(=O)C(CS)CS`, for which the IC50 in [1] stood at 75000 nM.
As to `C[C@H](CS)C(=O)N1CCC(C(=O)O)CC1`, the IC50 in assay [1] is 4900 nM.
The compound `C[C@H](CS)C(=O)N1CCC(CC(=O)O)CC1` displayed an IC50 in [1] of 19800 nM.
As for `NS(=O)(=O)c1nccc(-c2ccc(CO)cc2)c1-c1nn[nH]n1`, the MITC95 is 5.19 µM in the assay on Serratia marcescens [4], 11.76 µM in the assay with Klebsiella pneumoniae [5] and 0.558 µM in the assay with Escherichia coli [7]. The compound also gave an IC50 in assay [6] of 35 nM.
In assay [6], `Nc1cc(-c2nnn[nH]2)c(S(N)(=O)=O)cc1S(N)(=O)=O` had an IC50 of 33 nM.
Take `Cc1ccc(-c2cccc(S(N)(=O)=O)c2-c2nnn[nH]2)cc1`: the figures for the MITC95 in the assay on Serratia marcescens [4], in the assay with Klebsiella pneumoniae [5] and with Escherichia coli [7] were 13.8 µM, 127 µM and 1.48 µM, respectively.
For the compound `N=C(N)NNC(=O)Nc1c(F)cc(S(=O)(=O)Nc2scnc2C(=O)O)cc1F`, the Ki in assay [3] worked out at 40 nM.
On to `COc1ccc(Cl)cc1-c1c(C(=O)O)[nH]c2c1CCc1ccccc1-2`, for which the IC50 in assay [2] (read-out: IC50) worked out at 50 nM.
With `C[C@@H](c1cccc2c(-c3ccc(CS(C)(=O)=O)c(F)c3)c(C(=O)O)[nH]c12)N1CC2(CC(CN)C2)OC1=O` (stereo not given in full), the “fold change (FC)” value in the assay with Escherichia coli [8], in the assay on Klebsiella pneumoniae [9], in the assay with Escherichia coli [10] and in the assay on Escherichia coli [11] was 7 in each case. Besides, in assay [2] (read-out: pIC50 (converted)), the IC50 is under 1 nM.
For the compound `OCC(S)CS` (stereo not given) [DIMERCAPROL], the IC50 in assay [1] turned out to be 1300 nM.
As for `C[C@@H](O)[C@H]1C(=O)N2C(C(=O)O)=C(SCCNC=N)C[C@H]12` [IMIPENEM ANHYDROUS], the MITC95 was 16 µg/mL in the assay on Serratia marcescens [12], 64 µg/mL in the assay on Klebsiella pneumoniae [13] and 32 µg/mL in the assay on Escherichia coli [14].
As for `O=C(O)CN1CCN(CC(=O)O)CCN(CC(=O)O)CCN(CC(=O)O)CC1` [TETRAXETAN], the IC50 in [1] worked out at 1340 nM.
With `O=C(O)CNC(=O)C(CS)Cc1ccccc1` (stereo not given) [THIORPHAN], the IC50 in [1] is 1800 nM.

The term Ki denotes a dissociation constant, usually derived from enzyme kinetics or from competition with a known ligand.
